From patent US20220226484A1, “THERAPEUTIC PEPTIDES” (COHBAR, INC., priority 2019, published 2022)
Non-standard residues stand in square brackets, D forms with d. Primed or numbered codes have the meaning given here. No end group written: not given here. PEG12′ = not defined here

How the values were obtained:
Assay type in all cases: cell-based
H4IIE Rat Hepatoma Cells = experiment: Insulin-dependent effect on glucose production by cultured rat liver cells; settings: for Glucose Levels, MEAN % Control, +Insulin: peptide 10 μM + insulin 800 pM, percent of insulin (800 pM); for Glucose Levels, MEAN % Control, +Insulin / Glucose Levels, MEAN % Control, −Insulin: 24 hour; for Glucose Levels, MEAN % Control, −Insulin: peptide 10 μM alone, percent of untreated control cells
Description: The effect of the peptides on glucose production was assessed in the absence and presence of insulin using an assay of glucose levels in cultured cells such as rat hepatocytes. Peptides were initially prepared as 10 mM stock in DMSO and used at a final concentration of 10 μM (0.1% DMSO). Insulin (800 pM) was used as a partial inhibitor of glucose production. H4-IIE cells purchased from ATCC (Manassas, Va.) were seeded at 100,000 cells/well in standard medium (DMEM/high glucose+10% FBS+1× Glutamax+antibiotics) on 96-well plates and allowed to adhere overnight at 37° C. in a humidified atmosphere of 5% CO2/95% air. Approximately 24 h after seeding, the medium was removed, cells rinsed with glucose free DMEM, and Glucose Production Medium (glucose free DMEM+2 mM sodium pyruvate+10 mM sodium lactate) was added. The cultures were placed at 37° C. in a humidified atmosphere of 5% CO2/95% air overnight. The next morning, the medium was removed and fresh Glucose Production Medium containing compounds was added. Insulin at 800 pM was added to control wells. Peptides (10 μM) in the absence or presence of insulin (800 pM) were added to test wells. Cells in the presence of compounds were placed at 37° C. in a humidified atmosphere of 5% CO2/95% air overnight. After 24 hour incubation, conditioned medium from each well was transferred to a fresh 96-well plate for quantitation of glucose content. Quantitation of glucose levels was determined using an Amplex Red Glucose Assay kit (Abacm; Cambridge, Mass.) according to the manufacturer's instructions using a Cytation 3 plate reader at 570 nm (BioTek, Winooski, Vt.). Absorbance values were expressed as a percent of untreated control cells (maximum glucose production) for peptide alone samples or insulin (800 pM) for peptides in the presence of insulin (800 pM. Glucose levels for insulin (800 pM) treatment were ˜80-90% of the untreated control values. The results are reported in Table 15.

3T3-L1 Mouse Adipocytes [1] = experiment: Insulin-dependent effect on free fatty acid levels in cultured mouse adipocytes; settings: for Free Fatty Acid Levels, MEAN % ISO, +Insulin: peptide 10 μM + insulin 0.25 nM, percent of isoproterenol (0.1 nM)+insulin (0.25 nM); for Free Fatty Acid Levels, MEAN % ISO, +Insulin / Free Fatty Acid Levels, MEAN % ISO, −Insulin: 3 hours; for Free Fatty Acid Levels, MEAN % ISO, −Insulin: peptide 10 μM alone, percent of isoproterenol (0.1 nM) treated control cells
Description: The effect of the peptides on fatty acid metabolism was assessed in the absence and presence of insulin using an assay of free fatty acid levels in cultured cells such as mouse adipocytes. Peptides were initially prepared as 10 mM stock in DMSO and used at a final concentration of 10 μM (0.1% DMSO). […] Insulin (0.25 nM) was used as a partial inhibitor and insulin (10 nM) was used as a potent inhibitor of isoproterenol stimulated fatty acid production. Mouse 3T3-L1 cells purchased from ZenBio (Research Triangle Park, N.C.) were seeded at 3,000 cells per well on 96-well plates in Pre-Adipocyte Medium (Zen-Bio) and grown to confluence at 37° C. in a humidified atmosphere of 5% CO2/95% air. Two days after confluence, cells were placed in Adipocyte Differentiation Medium (Zen-Bio) and cultured for three additional days at 37° C. in a humidified atmosphere of 5% CO2/95% air. The culture medium was then partially replaced with Adipocyte Maintenance Medium (Zen-Bio) and the cells maintained at 37° C. in a humidified atmosphere of 5% CO2/95% air with partial medium replacement every other day. At 12 day of differentiation, 96-well cultures were transferred to Adipocyte Maintenance Medium without insulin and placed at 37° C. in a humidified atmosphere of 5% CO2/95% air for two days. Following this incubation period, the medium was removed from 14 day differentiated cultures and replaced with Assay Buffer (Zen-Bio) containing peptides (10 μM), insulin (0.25 nM or 10 nM), isoproterenol (0.1 nM) as appropriate. […] isoproterenol was added to all wells except untreated controls. Insulin at 0.1 nM and 10 nM was added to control wells. Peptides (10 μM) in the absence or presence of insulin (0.25 nM) were added to test wells. Cells in the presence of compounds were placed at 37° C. in a humidified atmosphere of 5% CO2/95% air for 3 hours. At the end of the final 3 h incubation, conditioned assay buffer was removed from each well and place in a fresh 96-well plate for quantitation of free fatty acid content. Free fatty acid concentrations in the assay buffer samples were determined using a Free Fatty Acid Assay kit (Zen-Bio) according to the manufacturer's instructions using a Cytation 3 plate reader at 540 nm (BioTek, Winooski, VD. Absorbance values were corrected for untreated background and expressed as a percent of isoproterenol (0.1 nM) treated control cells for peptides alone or isoproterenol (0.1 nM)+insulin (0.25 nM) for peptides in presence of insulin (0.25 nM). Treatment with isoproterenol […] alone was used as the free fatty acid level stimulatory control. The relative standard deviation of the isoproterenol control was <10%. […] Free fatty acid levels for insulin (10 nM) treatment were <5% of the isoproterenol control value. Free fatty acid levels for insulin (0.25 nM) treatment were 60-80% of the isoproterenol control value.

3T3-L1 Mouse Adipocytes [2] = experiment: Free fatty acid levels in cultured mouse adipocytes; settings: insulin 100 nM, 1 nM isoproterenol
Description: The effect of the peptides on fatty acid metabolism can be assessed using an assay of free fatty acid levels in cultured cells such as mouse adipocytes. Peptides were initially prepared as 10 mM stock in DMSO and used at a final concentration of 10 μM (0.1% DMSO). […] Mouse 3T3-L1 cells purchased from ZenBio were seeded at 3,000 cells per well in 96-well plates in Pre-adipocyte Medium (Zen-Bio) and grown to confluence at 37° C. in a humidified atmosphere of 5% CO2/95% air. Two days after confluence, cells were placed in Adipocyte Differentiation Medium (Zen-Bio) and cultured for three additional days at 37° C. in a humidified atmosphere of 5% CO2/95% air. The culture media was then replaced with Adipocyte Maintenance Medium (Zen-Bio) and the cells maintained for an additional 9-12 days at 37° C. in a humidified atmosphere of 5% CO2/95% air with partial medium replacement every other day. Following 12-15 days of differentiation, test peptides were added at a final concentration of 10 μM in 0.1% DMSO and incubated for 20-22 hours in Adipocyte Maintenance Medium at 37° C. in a humidified atmosphere of 5% CO2/95% air. After 20-22 hours, 1 nM isoproterenol was added to all wells except untreated controls and test peptides were replenished. Insulin at 100 nM was added to control wells. Cells were incubated for 3 hours in Assay Buffer (Zen-Bio) at 37° C. in a humidified atmosphere of 5% CO2/95% air. Free fatty acid concentrations in the media were determined using a Free Fatty Acid Assay kit (Zen-Bio) according to the manufacturer's instructions using a Cytation 3 plate reader at 540 nm (BioTek, Winooski, Vt.). Absorbance values were corrected for untreated background and expressed relative to isoproterenol treated cells. Treatment with isoproterenol (1 nM) alone was used as the free fatty acid level stimulatory control. The relative standard deviation of the isoproterenol control was <10%. […] Free fatty acid levels for insulin (100 nM) treatment were <5% of the isoproterenol control value.
The effect of the peptides on fatty acid metabolism was assessed using an assay of free fatty acid levels in cultured cells such as mouse adipocytes. Peptides were initially prepared as 10 mM stock in DMSO and used at a final concentration of 10 μM (0.1% DMSO). […] Mouse 3T3-L1 cells purchased from ZenBio were seeded at 3,000 cells per well in 96-well plates in Pre-adipocyte Medium (Zen-Bio) and grown to confluence at 37° C. in a humidified atmosphere of 5% CO2/95% air. Two days after confluence, cells were placed in Adipocyte Differentiation Medium (Zen-Bio) and cultured for three additional days at 37° C. in a humidified atmosphere of 5% CO2/95% air. The culture media was then replaced with Adipocyte Maintenance Medium (Zen-Bio) and the cells maintained for an additional 9-12 days at 37° C. in a humidified atmosphere of 5% CO2/95% air with partial medium replacement every other day. Following 12-15 days of differentiation, test peptides were added at a final concentration of 10 μM in 0.1% DMSO and incubated for 20-22 hours in Adipocyte Maintenance Medium at 37° C. in a humidified atmosphere of 5% CO2/95% air. After 20-22 hours, 1 nM isoproterenol was added to all wells except untreated controls and test peptides were replenished. Insulin at 100 nM was added to control wells. Cells were incubated for 3 hours in Assay Buffer (Zen-Bio) at 37° C. in a humidified atmosphere of 5% CO2/95% air. Free fatty acid concentrations in the media were determined using a Free Fatty Acid Assay kit (Zen-Bio) according to the manufacturer's instructions using a Cytation 3 plate reader at 540 nm (BioTek, Winooski, Vt.). Absorbance values were corrected for untreated background and expressed relative to isoproterenol treated cells. Treatment with isoproterenol (1 nM) alone was used as the free fatty acid level stimulatory control. The relative standard deviation of the isoproterenol control was <10%. […]

Substance | Glucose Levels, MEAN % Control, +Insulin (H4IIE Rat Hepatoma Cells) [%] | Glucose Levels, MEAN % Control, −Insulin (H4IIE Rat Hepatoma Cells) [%] | Free Fatty Acid Levels, MEAN % ISO, +Insulin (3T3-L1 Mouse Adipocytes [1]) [%] | Free Fatty Acid Levels, MEAN % ISO, −Insulin (3T3-L1 Mouse Adipocytes [1]) [%] | Free fatty acid levels, % of the isoproterenol control value (3T3-L1 Mouse Adipocytes [2]) [%] | Glucose levels, % of the untreated control values (H4IIE Rat Hepatoma Cells; insulin 800 pM) | Free fatty acid levels, % of the isoproterenol control value (3T3-L1 Mouse Adipocytes [1]; insulin 0.25 nM) | Free fatty acid levels, % of the isoproterenol control value (3T3-L1 Mouse Adipocytes [1]; insulin 10 nM) [%]
RVIRMCLNVGLEGEL(dA) (RVIRMCLNVGLEGEL[dA]) [SEQ ID NO: 19] | 3.7 | 12.5 | 24.7 | 67.1 | – | – | – | –
RVIRMCLNVGLNGE [SEQ ID NO: 21] | 78.2 | 102 | 40.0 | 102 | – | – | – | –
insulin: highly potent positive control for decreasing free fatty acid levels; partial inhibitor of glucose production | – | – | – | – | < 5 | 80-90% | 60-80% | < 5
{PEG12}KRVIRMCLNVGLLGEL(dA)E ([PEG12′]KRVIRMCLNVGLLGEL[dA]E) [SEQ ID NO: 18] | 95.4 | 101 | 93.6 | 107 | – | – | – | –
